Data from patent publication US20050250837A1, “Use of C-Raf inhibitors for the treatment of neurodegenerative diseases” (priority 2002, published 2005).

Legend:
[1] = biological target: C-Raf (Homo sapiens, UniProt P04049); experiment: In vitro kinase assay, purified kinase (Upstate Kinase Profiling); format: biochemical
Protocol: In general, in vitro kinase assays were performed using purified kinase and synthetic substrates under standard conditions using the Kinase Profiling service of Upstate Biotechnology. Briefly, for each assay 5-10 mU of purified kinase was used. […] Kinase activity was quantified by measuring ^33P incorporation by spotting an aliquot on P30 filters, washing in 50 mM phosphoric acid and scintillation counting. The buffer composition for C-Raf, JNK1, JNK2, JNK3, MEK1, MKK6, MKK7 was 50 mM Tris pH7.5, 0.1 mM EGTA, 10 mM Mg acetate and [γ-^33P-ATP]. The peptide substrates used were as follows: For C-Raf, 0.66 mg/ml MBP; for cdks, 0.1 mg/ml histone H1; for JNKs, 3 uM ATF2; for MEK1, 1 uM MAPK2; for MKK6, 1 uM of SAPK2a and for MKK7, 2 uM JNK1α.

[2] = biological target: T1, C-Raf (Rattus norvegicus, UniProt P11345); experiment: Activity of C-Raf immunoprecipitated from neuronal lysates, GST-MEK substrate, phospho-MEK Western; format: cell-based
T1 construct: Activities of endogenous C-Raf and B-Raf activity was assayed by measuring the ability of kinase immunoprecipitated from neuronal lysates; endogenous in cells; host or cells: primary rat cerebellar granule neurons
T1 sequence (P11345 whole entry): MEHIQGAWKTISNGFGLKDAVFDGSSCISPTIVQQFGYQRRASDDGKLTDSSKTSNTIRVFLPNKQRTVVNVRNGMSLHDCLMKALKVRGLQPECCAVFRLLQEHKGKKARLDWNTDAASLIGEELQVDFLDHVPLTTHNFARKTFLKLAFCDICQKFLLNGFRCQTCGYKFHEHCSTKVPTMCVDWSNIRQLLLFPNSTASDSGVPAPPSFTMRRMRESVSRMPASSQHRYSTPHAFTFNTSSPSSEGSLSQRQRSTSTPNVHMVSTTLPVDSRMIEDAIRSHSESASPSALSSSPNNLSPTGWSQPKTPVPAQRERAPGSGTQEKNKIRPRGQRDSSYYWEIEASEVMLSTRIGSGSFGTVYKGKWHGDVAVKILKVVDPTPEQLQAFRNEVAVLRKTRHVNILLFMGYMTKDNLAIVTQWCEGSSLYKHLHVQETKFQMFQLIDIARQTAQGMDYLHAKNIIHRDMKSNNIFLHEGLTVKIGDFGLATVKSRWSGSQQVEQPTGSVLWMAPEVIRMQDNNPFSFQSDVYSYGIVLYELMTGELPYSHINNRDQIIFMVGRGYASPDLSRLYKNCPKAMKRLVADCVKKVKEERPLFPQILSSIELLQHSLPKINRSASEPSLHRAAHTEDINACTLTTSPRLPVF
Protocol: The immunoprecipitated C-Raf was used in in vitro kinase assays using GST-MEK as substrate and the reaction products subjected to Western analysis. Phosphorylation of MEK was detected using a phospho-MEK antibody. […] After 1 hour of treatment, the cultures were lysed, C-Raf immunoprecipitated from the lysate and used in an in vitro kinase assay with MEK as substrate. The reaction mixture was subjected to Western analysis using a phospho-MEK antibody as probe.
(Hall-Jackson et al., 1999). […] Lysates from the cultures were used in a kinase reaction with MEK as substrate. […] Phosphorylation of MEK was detected by Western blot analysis using an phospho-MEK antibody and the same blot was reprobed with a C-Raf antibody.
After treatment, cultures of 7-8-day old neurons were washed twice with ice-cold PBS and lysed in ice cold lysis buffer. The lysates were centrifuged for 10 min at 10,000 rpm at 4° C. Protein concentrations of the supernatant were measured using a Bradford protein assay kit (Bio-Rad), and equivalent amounts of protein were incubated overnight with primary antibody (1.0-2 ug) and then for 2 h with 20 ul Protein A/G PLUS-Agarose (Santa Cruz Biotech.) Immunoprecipitates were collected by centrifugation at 2,500 rpm for 5 min at 4° C. and washed three times with lysis buffer, and pellets resuspended in electrophoresis sample buffer (187.5 mM Tris-HCl (pH 6.8 at 25° C.), 6% SDS, 30% glycerol, 150 mM DTT, 0.03% bromophenol blue), boiled for 4 min and subjected to SDS-polyacrylamide gel electrophoresis.
Activities of endogenous C-Raf and B-Raf activity was assayed by measuring the ability of kinase immunoprecipitated from neuronal lysates to phosphorylate a kinase-dead recombinant GST-MEK1 substrate. Following immunoprecipitation and multiple washes with lysis buffer, lysis buffer supplemented with 350 mM NaCl, and kinase buffer (25 mM HEPES pH 7.4 and 10 mM MgCl2), in vitro kinase assays are performed on the immune complexes using purified recombinant GST-MEK1 K97M protein as a substrate in kinase buffer supplemented with 85 μM ATP for 35 minutes at 30° C. Reactions are stopped by the addition of 3×SDS sample buffer and boiled for five minutes. Proteins are resolved by SDS-PAGE and subjected to Western blotting. The level of phosphorylated MEK is detected by a phospho-MEK antibody.

[3] = system: Akt; experiment: Akt phosphorylation (Ser473) in neuronal cultures, Western blot; format: cell-based, rat
Protocol: The best-studied anti-apoptotic pathway in neurons is the PI-3 kinase—Akt signaling pathway (D'Mello et al., 1997; Dudek et al., 1997; Miller et al, 1997a). IGF-1, a potent survival-promotic factor for granule neurons mediates its effect by activating the PI-3 kinase-Akt pathway (Datta et al., 1997; Dudek et al., 1997; D'Mello et al., 1998). […] Switching cerebellar granule neurons from serum-containing HK medium in which they are cultured and allowed to mature, to serum-free LK or HK medium, causes a rapid downregulation of Akt phosphorylation and activity, which can be prevented by IGF-1 (Kumari et al., 2001). […] The same blot was reprobed with an antibody against phospho-Gskβ. Also loaded on the gel were lysates from untreated cultures (maintained in medium containing serum and high K+) and a culture treated for 1 hour with 25 ng/ml IGF-1. […] GSK3βis a proapoptotic molecule that is activated during apoptosis in many neuronal and normeuronal systems. Under survival promoting conditions GSK3β is kept inactivated by phosphorylation, a modification that can be induced by Akt. […] Another proapoptotic molecule that is phosphorylated and inactivated by Akt is the transcription factor, Forkhead (Linseman et al., 2002). […] Switching of neurons to LK medium leads to a rapid downregulation of Akt activity within 2 hours.
For whole-cell lysates, the culture medium was discarded, the neurons washed twice with ice-cold phosphate-buffered saline (PBS), and lysed in lysis buffer (1% Triton, 20 mM Tris-HCl (pH 7.5), 150 mM NaCl, 1 mM Na2EDTA, 1 mM EGTA, 2.5 mM sodium pyrophosphate, 1 mM beta-glycerophosphate, 1 mM Na3VO4, 1 μg/ml leupeptin and 1× protease inhibitor mixture). Protein concentrations were measured using a Bradford protein assay kit (Bio-Rad), and equivalent amounts of protein were mixed with 6×SDS-PAGE sample buffer. […] After staining with Ponceau S to verify uniformity of protein loads/transfer, the membranes were analyzed for immunoreactivity. […]

[4] = system: NF-κB; experiment: NF-κB DNA-binding activity, gel mobility shift assay; format: cell-based, rat; conditions: LK + 1 uM GW5074, 6 hours
Protocol: Another molecule known to be important for neuronal survival is NF-κB. Although the precise mechanism has not been elucidated, the Raf is known to activate NF-κB in normeuronal cells via a MEK-ERK-independent mechanism (Foo and Nolan, 1999; Pearson et al., 2000). […] Viability was quantified 24 hours later and expressed as percentage of viability in HK.
One potential mediator of MEK-ERK-independent B-Raf signaling is NF-κB.
Nuclei from neuronal cultures were resuspended in buffer containing 20 mM HEPES pH 7.6, 50 mM KCl, 300 mM NaCl, 0.1 mM EDTA, 1 mM DTT, 0.1 mM PMSF, 10% glycerol, 1× protease inhibitor cocktail and extracted on ice for 30 min, followed by micro-centrifugation at 14,000 rpm for 10 min. The supernatants were collected as nuclear extracts. Concentrations of these nuclear extracts were determined by the Bradford method using reagents from Bio-Rad. Ten μg of each nuclear extract sample was incubated with 0.1 pmol of ^32P-labeled double-stranded KB binding oligonucleotide (5′-[…]-3′) identified as SEQ ID NO:1, or SP1 binding oligonucleotide (5′-[…]-3′) identified as SEQ ID NO:2, in buffer containing 1 μg of poly (d1-dC), 1 μg of BSA, 10 mM HEPES pH7.6, 0.5 mM DTT, 0.1 mM EDTA, 60 mM KCl, 0.2 mM PMSF, 5 mM MgCl2, and 12% glycerol at room temperature for 30 min. Samples were analyzed by 5% native polyacrylamide gel electrophoresis (PAGE) followed by autoradiography.

[5] = biological target: cdk2 (Homo sapiens, UniProt P24941); conditions: Lackey et al., 2000; cited from earlier work

C-Raf (Homo sapiens, UniProt P04049), sequence (P04049 whole entry, species assumed): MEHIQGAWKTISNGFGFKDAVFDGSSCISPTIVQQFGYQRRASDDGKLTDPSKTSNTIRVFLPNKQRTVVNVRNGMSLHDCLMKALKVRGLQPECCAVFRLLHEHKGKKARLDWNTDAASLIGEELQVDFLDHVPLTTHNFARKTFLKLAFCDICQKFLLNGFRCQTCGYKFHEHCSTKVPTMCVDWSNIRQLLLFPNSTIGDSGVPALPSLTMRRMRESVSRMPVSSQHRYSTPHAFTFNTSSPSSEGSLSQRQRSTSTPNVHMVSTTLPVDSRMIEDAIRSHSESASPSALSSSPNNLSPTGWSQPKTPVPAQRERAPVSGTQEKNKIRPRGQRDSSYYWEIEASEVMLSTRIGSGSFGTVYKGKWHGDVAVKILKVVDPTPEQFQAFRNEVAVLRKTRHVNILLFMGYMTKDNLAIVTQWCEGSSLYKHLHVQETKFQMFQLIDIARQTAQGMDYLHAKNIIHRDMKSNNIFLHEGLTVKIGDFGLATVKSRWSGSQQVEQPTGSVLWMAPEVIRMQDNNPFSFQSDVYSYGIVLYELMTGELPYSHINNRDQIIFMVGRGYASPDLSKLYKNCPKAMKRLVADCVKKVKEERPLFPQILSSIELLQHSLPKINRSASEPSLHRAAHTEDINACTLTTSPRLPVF

Structure (SMILES): O=C1Nc2ccc(I)cc2C1=Cc1cc(Br)c(O)c(Br)c1 [GW5074, 5-Iodo-3-[(3,5-dibromo-4-hydroxyphenyl)methylene]-2-indolinone]
- activity at 1 µM [1]: 3%
- concentration inhibiting immunoprecipitated C-Raf when added in vitro ([2]; GW5074 added to the immunoprecipitated enzyme in the kinase reaction): lower than 1 uM
- activity of C-Raf immunoprecipitated from treated cultures ([2]; LK + GW5074 0.25-5 uM, 1 hour): marked induction
- Akt phosphorylation after LK treatment ([3]; LK + 1 uM GW5074, 1 and 3 hours): delays the downregulation of Akt phosphorylation
- de novo Akt activation after downregulation in LK ([3]; added to cultures already switched to LK): does not lead to Akt activation
- NF-κB binding activity in LK [4]: downregulation of NF-κB binding activity is prevented
- effect on activity of cdk2 [5]: no effect
